In patent publication US6187810A, “Macrocyclic compounds made from suboxide units” (Donatur Dr. Kerek GmbH, priority 1996, dated 2001):
Like-named read-outs stand apart in the source and are kept apart here.

Columns and labels:
[1] = Acute toxicity of cardiac glycosides applied together with the active substances; type: in vivo
Description: Furthermore, as was experimentally established, the active substances according to the invention are capable to control the activity of several other essential enzymes, for example collegenases, hyaluronidases, phosphokinases and other enzymes. According to all indications, the active substances according to the invention are useable as endogenous ligands of the Na^+,K^+ -ATPase enzyme.

[2] = test system: mice; conditions: cited from earlier work; for toxicity in words (blood toxin, irritation): mouse, in vivo
[3] = test system: hemoglobin; conditions: cited from earlier work

C[C@@H]1O[C@@H](O[C@H]2C[C@@H](O)[C@]3(CO)[C@H]4[C@H](O)C[C@]5(C)[C@@H](C6=CC(=O)OC6)CC[C@]5(O)[C@@H]4CC[C@]3(O)C2)[C@H](O)[C@H](O)[C@H]1O [ouabain]
toxic side-effects of cardiac glycoside ([1]; active substances applied together with the glycoside): reduction of the toxic side-effects

O=C=C=C=O [C3 O2, carbon suboxide]
tolerability limit in mice ([2]; C3 O2 in dry air): 0.2-0.4% | toxicity in words (blood toxin, irritation) [2]: irritating to mucus membranes | toxicity in words (blood toxin, irritation) ([2]; listed as Carbon suboxide): relatively strong blood toxin | binding to hemoglobin [3]: irreversibly binds hemoglobin

C[C@@H]1O[C@@H](O[C@H]2CC[C@]3(C=O)[C@H]4CC[C@]5(C)[C@@H](c6ccc(=O)oc6)CC[C@]5(O)[C@@H]4CC[C@]3(O)C2)[C@H](O)[C@H](O)[C@H]1O[C@@H]1O[C@H](CO)[C@@H](O)[C@H](O)[C@H]1O [hellebrin]
LD50 ([1]; with active substances at molar ratio 0.02 to 2/1 mol glycoside, preferably 1:1): considerably higher
